Square brackets hold non-standard residues; d marks the D form. Peptide text beside a SMILES is read from it. * marks the point of attachment. Ala(1H-tetrazol-5-yl) = N[C@@H](Cc1nnn[nH]1)C(=O)O; Ms = CS(=O)(=O)*
Test: Peptide stability test, Tris buffer (pH 7.0), 60° C. storage, HPLC remaining rate
Type: physicochemical
Details: 100 μM in Tris buffer pH 7.0
Protocol: Peptides 1, 2 and 6 to 9 synthesized in Example 2 were weighed and dissolved in Tris buffer (pH 7.0) to prepare 1.0 mM peptide solutions. Each solution was filtered with a Chromatdisk (product of Merck Millipore, Millex-GV, 0.22 μm). The filtrate was diluted to 100 μM with Tris buffer (pH 7.0) and dispensed into a tube (Protein LoBind Tube by Eppendorf Co.). The prepared peptide solutions were incubated for 1 week or 2 weeks in a 60° C. thermostatic bath to obtain stored samples. A simultaneously prepared sample among the peptide solutions that was not stored was used as a standard sample (initial sample). The standard sample and the stored samples were stored at −30° C. until sample analysis. Each stored sample was measured under the following HPLC analysis conditions 2, and the remaining rate after correction for water for each peptide among the stored samples was calculated in the same manner as Example 3. Guard column: XSelect CSH C18 by Waters Co., 5 μm, 4.6×20 mm Guard Cartridge Detection wavelength: 220 nm Mobile phase A: 0.1% formic acid aqueous solution Mobile phase B: 0.1% acetonitrile formate solution Measuring time: 20 minutes Measuring sample injection rate: 50 μL Flow rate: 1.0 mL/min Column temperature: 40° C. Sample cooler: 25° C. Mobile phase delivery: The mixing ratio of mobile phase A and mobile phase B was varied as shown in Table 5 for linear concentration gradient control. Peptides 12 to 25, 27 and 28 synthesized in Example 2 were weighed and dissolved in Tris buffer (pH 7.0) to prepare 1.0 mM peptide solutions. Each solution was filtered with a Chromatdisk (product of Merck Millipore, Millex-GV, 0.22 μm). The filtrate was diluted to 100 μM with Tris buffer (pH 7.0) and dispensed into a tube (Protein LoBind Tube by Eppendorf Co.). The prepared peptide solutions were incubated for one week or 2 weeks in a 60° C. thermostatic bath to obtain stored samples. A simultaneously prepared sample among the peptide solutions that was not stored was used as a standard sample (initial sample). The standard sample and the stored samples were stored at −30° C. until sample analysis. The remaining rate after correction for water for each peptide among the stored samples was calculated in the same manner as Example 4, and the results are shown in Table 7. Peptides 29 to 34 synthesized in Example 2 were weighed and dissolved in Tris buffer (pH 7.0) to prepare 1.0 mM peptide solutions. Each solution was filtered with a Chromatdisk (product of Merck Millipore, Millex-GV, 0.22 μm). The filtrate was diluted to 100 μM with Tris buffer (pH 7.0) and dispensed into a tube (Protein LoBind Tube by Eppendorf Co.). The prepared peptide solutions were incubated for 2 weeks in a 60° C. thermostatic bath to obtain stored samples. A simultaneously prepared sample among the peptide solutions that was not stored was used as a standard sample (initial sample). The standard sample and the stored samples were stored at −30° C. until sample analysis. The remaining rate after correction for water for each peptide among the stored samples was calculated in the same manner as Example 4, and the results are shown in Table 7-2. Peptide 26 synthesized in Example 2 was weighed and dissolved in Tris buffer (pH 7.0) to prepare a 1.0 mM peptide solution. The solution was filtered with a Chromatdisk (product of Merck Millipore, Millex-GV, 0.22 μm). The filtrate was diluted to 100 μM with Tris buffer (pH 7.0) and dispensed into a tube (Protein LoBind Tube by Eppendorf Co.). The prepared peptide solution was incubated for one week or 2 weeks in a 60° C. thermostatic bath to obtain stored samples. A simultaneously prepared sample among the peptide solutions that was not stored was used as a standard sample (initial sample). The standard sample and the stored sample were stored at −30° C. until sample analysis. […]

remaining rate after correction for water, 60° C., 1 week preservation (Table 7) [%] | remaining rate after correction for water, 60° C., 2 weeks preservation (Table 7) [%] | other results | SMILES
98.2 |  |  | CC[C@H](C)[C@H](NC(=O)CNC(=O)[C@H](Cc1nnn[nH]1)NC(=O)[C@H](CO)NC(=O)[C@H](Cc1c[nH]cn1)NC(C)=O)C(=O)N[C@@H](Cc1ccccc1)C(=O)N[C@H](C(=O)N[C@@H](Cc1nnn[nH]1)C(=O)N[C@@H](CO)C(=O)N[C@@H](Cc1ccc(O)cc1)C(=O)N[C@@H](CO)C(=O)N[C@@H](CCCNC(=N)N)C(=O)N[C@@H](Cc1ccc(O)cc1)C(=O)N[C@@H](CCCNC(=N)N)C(=O)N[C@@H](CCCNC(=N)N)C(=O)N[C@@H](CCC(N)=O)C(=O)N[C@@H](CC(C)C)C(=O)N[C@@H](C)C(=O)N[C@H](C(=O)N[C@@H](CCCNC(=N)N)C(=O)N[C@@H](CCCNC(=N)N)C(=O)N[C@@H](Cc1ccc(O)cc1)C(=O)N[C@@H](CC(C)C)C(=O)N[C@@H](C)C(=O)N[C@@H](C)C(=O)N[C@H](C(=O)N[C@@H](CC(C)C)C(=O)NCC(=O)N[C@@H](CCCNC(=N)N)C(=O)N[C@@H](CCCNC(=N)N)C(N)=O)C(C)C)C(C)C)[C@@H](C)O [Peptide 22] (Ac-HS[Ala(1H-tetrazol-5-yl)]GIFT[Ala(1H-tetrazol-5-yl)]SYSRYRRQLAVRRYLAAVLGRR-NH2)
98.1 | 94.3 |  | CC[C@H](C)[C@H](NC(=O)CNC(=O)[C@H](Cc1nnn[nH]1)NC(=O)[C@H](C)NC(=O)[C@H](Cc1c[nH]cn1)NC(C)=O)C(=O)N[C@@H](Cc1ccccc1)C(=O)N[C@H](C(=O)N[C@@H](Cc1nnn[nH]1)C(=O)N[C@@H](C)C(=O)N[C@@H](Cc1ccc(O)cc1)C(=O)N[C@@H](CO)C(=O)N[C@@H](CCCNC(=N)N)C(=O)N[C@@H](Cc1ccc(O)cc1)C(=O)N[C@@H](CCCNC(=N)N)C(=O)N[C@@H](CCCCN)C(=O)N[C@@H](CCC(N)=O)C(=O)N[C@@H](CC(C)C)C(=O)N[C@@H](C)C(=O)N[C@H](C(=O)N[C@@H](CCCCN)C(=O)N[C@@H](CCCCN)C(=O)N[C@@H](Cc1ccc(O)cc1)C(=O)N[C@@H](CC(C)C)C(=O)N[C@@H](C)C(=O)N[C@@H](C)C(=O)N[C@H](C(=O)N[C@@H](CC(C)C)C(N)=O)C(C)C)C(C)C)[C@@H](C)O [Peptide 24] (Ac-HA[Ala(1H-tetrazol-5-yl)]GIFT[Ala(1H-tetrazol-5-yl)]AYSRYRKQLAVKKYLAAVL-NH2)
95.8 | 91.2 |  | CC[C@H](C)[C@H](NC(=O)CNC(=O)[C@H](Cc1nnn[nH]1)NC(=O)[C@H](C)NC(=O)[C@H](Cc1c[nH]cn1)NC(C)=O)C(=O)N[C@@H](Cc1ccccc1)C(=O)N[C@H](C(=O)N[C@@H](Cc1nnn[nH]1)C(=O)N[C@@H](CO)C(=O)N[C@@H](Cc1ccc(O)cc1)C(=O)N[C@@H](CO)C(=O)N[C@@H](CCCNC(=N)N)C(=O)N[C@@H](Cc1ccc(O)cc1)C(=O)N[C@@H](CCCNC(=N)N)C(=O)N[C@@H](CCCCN)C(=O)N[C@@H](CCC(N)=O)C(=O)N[C@@H](C)C(=O)N[C@@H](C)C(=O)N[C@H](C(=O)N[C@@H](CCCCN)C(=O)N[C@@H](CCCCN)C(=O)N[C@@H](Cc1ccc(O)cc1)C(=O)N[C@@H](CC(C)C)C(=O)N[C@@H](C)C(=O)N[C@@H](C)C(=O)N[C@H](C(=O)N[C@@H](CC(C)C)C(N)=O)C(C)C)C(C)C)[C@@H](C)O [Peptide 25] (Ac-HA[Ala(1H-tetrazol-5-yl)]GIFT[Ala(1H-tetrazol-5-yl)]SYSRYRKQAAVKKYLAAVL-NH2)
 |  | remaining rate after correction for water, 60° C., 1 week preservation (Table 10, HPLC conditions 3): 98.0%; remaining rate after correction for water, 60° C., 2 weeks preservation (Table 10, HPLC conditions 3): 94.8% | CC[C@H](C)[C@H](NC(=O)CNC(=O)[C@H](Cc1nnn[nH]1)NC(=O)[C@H](CO)NC(=O)[C@H](Cc1c[nH]cn1)NC(C)=O)C(=O)N[C@@H](Cc1ccccc1)C(=O)N[C@H](C(=O)N[C@@H](Cc1nnn[nH]1)C(=O)N[C@@H](C)C(=O)N[C@@H](Cc1ccc(O)cc1)C(=O)N[C@@H](CO)C(=O)N[C@@H](CCCNC(=N)N)C(=O)N[C@@H](Cc1ccc(O)cc1)C(=O)N[C@@H](CCCNC(=N)N)C(=O)N[C@@H](CCCCN)C(=O)N[C@@H](C)C(=O)N[C@@H](CC(C)C)C(=O)N[C@@H](C)C(=O)N[C@H](C(=O)N[C@@H](CCCCN)C(=O)N[C@@H](CCCCN)C(=O)N[C@@H](Cc1ccc(O)cc1)C(=O)N[C@@H](CC(C)C)C(=O)N[C@@H](C)C(=O)N[C@@H](C)C(=O)N[C@H](C(=O)N[C@@H](CC(C)C)C(N)=O)C(C)C)C(C)C)[C@@H](C)O [Peptide 26] (Ac-HS[Ala(1H-tetrazol-5-yl)]GIFT[Ala(1H-tetrazol-5-yl)]AYSRYRKALAVKKYLAAVL-NH2)
94.6 | 90.5 |  | CC[C@H](C)[C@H](NC(=O)CNC(=O)[C@H](Cc1nnn[nH]1)NC(=O)[C@H](CO)NC(=O)[C@H](Cc1c[nH]cn1)NC(C)=O)C(=O)N[C@@H](Cc1ccccc1)C(=O)N[C@H](C(=O)N[C@@H](Cc1nnn[nH]1)C(=O)N[C@@H](CO)C(=O)N[C@@H](Cc1ccc(O)cc1)C(=O)N[C@@H](CO)C(=O)N[C@@H](CCCNC(=N)N)C(=O)N[C@@H](Cc1ccc(O)cc1)C(=O)N[C@@H](CCCNC(=N)N)C(=O)N[C@@H](CCCCN)C(=O)N[C@@H](C)C(=O)N[C@@H](C)C(=O)N[C@@H](C)C(=O)N[C@H](C(=O)N[C@@H](CCCCN)C(=O)N[C@@H](CCCCN)C(=O)N[C@@H](Cc1ccc(O)cc1)C(=O)N[C@@H](CC(C)C)C(=O)N[C@@H](C)C(=O)N[C@@H](C)C(=O)N[C@H](C(=O)N[C@@H](CC(C)C)C(N)=O)C(C)C)C(C)C)[C@@H](C)O [Peptide 28] (Ac-HS[Ala(1H-tetrazol-5-yl)]GIFT[Ala(1H-tetrazol-5-yl)]SYSRYRKAAAVKKYLAAVL-NH2)
 |  | remaining rate after correction for water, 60° C., 2 weeks preservation (Table 7-2): 91.9% | CC[C@H](C)[C@H](NC(=O)CNC(=O)[C@H](Cc1nnn[nH]1)NC(=O)[C@H](CO)NC(=O)[C@H](Cc1c[nH]cn1)NS(C)(=O)=O)C(=O)N[C@@H](Cc1ccccc1)C(=O)N[C@H](C(=O)N[C@@H](Cc1nnn[nH]1)C(=O)N[C@@H](C)C(=O)N[C@@H](Cc1ccc(O)cc1)C(=O)N[C@@H](CO)C(=O)N[C@@H](CCCNC(=N)N)C(=O)N[C@@H](Cc1ccc(O)cc1)C(=O)N[C@@H](CCCNC(=N)N)C(=O)N[C@@H](CCCCN)C(=O)N[C@@H](CCC(N)=O)C(=O)N[C@@H](CC(C)C)C(=O)N[C@@H](C)C(=O)N[C@H](C(=O)N[C@@H](CCCCN)C(=O)N[C@@H](CCCCN)C(=O)N[C@@H](Cc1ccc(O)cc1)C(=O)N[C@@H](CC(C)C)C(=O)N[C@@H](C)C(=O)N[C@@H](C)C(=O)N[C@H](C(=O)N[C@@H](CC(C)C)C(N)=O)C(C)C)C(C)C)[C@@H](C)O [Peptide 29] (Ms-HS[Ala(1H-tetrazol-5-yl)]GIFT[Ala(1H-tetrazol-5-yl)]AYSRYRKQLAVKKYLAAVL-NH2)
 |  | remaining rate after correction for water, 60° C., 2 weeks preservation (Table 7-2): 92.2% | CC[C@H](C)[C@H](NC(=O)[C@H](C)NC(=O)[C@H](Cc1nnn[nH]1)NC(=O)[C@H](CO)NC(=O)[C@H](Cc1c[nH]cn1)NS(C)(=O)=O)C(=O)N[C@@H](Cc1ccccc1)C(=O)N[C@H](C(=O)N[C@@H](Cc1nnn[nH]1)C(=O)N[C@@H](CO)C(=O)N[C@@H](Cc1ccc(O)cc1)C(=O)N[C@@H](CO)C(=O)N[C@@H](CCCNC(=N)N)C(=O)N[C@@H](Cc1ccc(O)cc1)C(=O)N[C@@H](CCCNC(=N)N)C(=O)N[C@@H](CCCCN)C(=O)N[C@@H](CCC(N)=O)C(=O)N[C@@H](CC(C)C)C(=O)N[C@@H](C)C(=O)N[C@H](C(=O)N[C@@H](CCCCN)C(=O)N[C@@H](CCCCN)C(=O)N[C@@H](Cc1ccc(O)cc1)C(=O)N[C@@H](CC(C)C)C(=O)N[C@@H](C)C(=O)N[C@@H](C)C(=O)N[C@H](C(=O)N[C@@H](CC(C)C)C(N)=O)C(C)C)C(C)C)[C@@H](C)O [Peptide 30] (Ms-HS[Ala(1H-tetrazol-5-yl)]AIFT[Ala(1H-tetrazol-5-yl)]SYSRYRKQLAVKKYLAAVL-NH2)
